Earlier results as cited in US8362030B2, “Tricyclic derivatives as inhibitors of poly(ADP-ribose) polymerase (PARP)” (Istituto di Ricerche di Biologia Molecolare P. Angeletti …, priority 2008, dated 2013).

System: ischemia and reperfusion of the heart
Details: rabbits

## NC(=O)c1cccc(N)c1 [3-amino-benzamide]
Single injection 10 mg/kg, one minute before occlusion or before reperfusion
  reduction in infarct size in the heart: 32-42%

## Oc1cccc2c(O)nccc12 [1,5-dihydroxyisoquinoline]
Single injection 1 mg/kg
  reduction in infarct size: 38-48%
